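Results reflect a 48-hour exposure of cells in 96-well plates to compound at five concentrations. GI50 is the concentration that inhibits growth by half. At the TGI there is no net growth.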
Experiments:
Experiment in all cases: NCI anticancer screen, dose series, 48 h
A549 NSCLC = system: A549 NSCLC
COLO 205 colon = system: COLO 205 colon
MDA-MB-435 = system: MDA-MB-435
NCI-H226 lung = system: NCI-H226 lung
OVCAR-5 ovarian = system: OVCAR-5 ovarian
RPMI-8226 leukemia = system: RPMI-8226 leukemia
RXF 393 renal = system: RXF 393 renal
SF-295 CNS = system: SF-295 CNS
SK-MEL-28 melanoma = system: SK-MEL-28 melanoma
T-47D breast = system: T-47D breast

Work on `CCC(=O)N1C/C(=C/c2ccc(Br)cc2)C(=O)/C(=C/c2ccc(Br)cc2)C1` yielded a GI50 (A549 NSCLC) of 0.745 µM, a TGI (A549 NSCLC) of 10.8 µM and a GI50 (COLO 205 colon) of 0.611 µM. It also gave a TGI (COLO 205 colon) of 1.74 µM, a GI50 (MDA-MB-435) of 0.524 µM and a TGI (MDA-MB-435) of 1.46 µM. For the same compound, the GI50 (NCI-H226 lung) was 1.13 µM, the TGI (NCI-H226 lung) was 4.38 µM and the GI50 (OVCAR-5 ovarian) was 1.32 µM. The TGI (OVCAR-5 ovarian) was 3.22 µM, the GI50 (RPMI-8226 leukemia) was under 0.0497 µM and the GI50 (RXF 393 renal) was 0.22 µM. For the same compound, the TGI (RXF 393 renal) was 0.522 µM, the GI50 (SF-295 CNS) was 1.6 µM and the TGI (SF-295 CNS) was 4.3 µM. For the same compound, the GI50 (SK-MEL-28 melanoma) was 1.53 µM, the TGI (SK-MEL-28 melanoma) was 3.13 µM and the GI50 (T-47D breast) was 0.673 µM. For the same compound, the TGI (T-47D breast) was 2.54 µM.
Compound `Cn1cc(C2=C(c3cn(CCCN)c4ccccc34)C(=O)NC2=O)c2ccccc21` has a GI50 (A549 NSCLC) of 5.65 µM, a TGI (A549 NSCLC) of 17.4 µM and a GI50 (COLO 205 colon) of 3.27 µM. For the same compound, the TGI (COLO 205 colon) was 7.06 µM, the GI50 (MDA-MB-435) was 2.66 µM and the TGI (MDA-MB-435) was 6.62 µM. It also gave a GI50 (NCI-H226 lung) of 5.87 µM, a TGI (NCI-H226 lung) of over 18 µM and a GI50 (OVCAR-5 ovarian) of 9.52 µM. The TGI (OVCAR-5 ovarian) was over 25 µM, the GI50 (RPMI-8226 leukemia) was 5.91 µM and the TGI (RPMI-8226 leukemia) was 12.5 µM. For the same compound, the GI50 (RXF 393 renal) was 3.4 µM, the TGI (RXF 393 renal) was 7.42 µM and the GI50 (SF-295 CNS) was 7.38 µM. For the same compound, the TGI (SF-295 CNS) was over 25 µM, the GI50 (SK-MEL-28 melanoma) was 4.7 µM and the TGI (SK-MEL-28 melanoma) was 9.3 µM. For the same compound, the GI50 (T-47D breast) was 6.4 µM and the TGI (T-47D breast) was 17.5 µM.
`O=C(Nc1cc(F)c(F)cc1C(=O)O)c1ccc(-n2ccnc2)nn1` was tested, and the GI50 (A549 NSCLC) was over 100 µM, the TGI (A549 NSCLC) was over 100 µM and the GI50 (COLO 205 colon) was over 100 µM. It also gave a TGI (COLO 205 colon) of over 100 µM, a GI50 (MDA-MB-435) of over 100 µM and a TGI (MDA-MB-435) of over 100 µM. For the same compound, the GI50 (NCI-H226 lung) was over 100 µM, the TGI (NCI-H226 lung) was over 100 µM and the GI50 (OVCAR-5 ovarian) was over 100 µM. For the same compound, the TGI (OVCAR-5 ovarian) was over 100 µM, the GI50 (RPMI-8226 leukemia) was over 100 µM and the TGI (RPMI-8226 leukemia) was over 100 µM. For the same compound, the GI50 (RXF 393 renal) was 19.6 µM, the TGI (RXF 393 renal) was over 100 µM and the GI50 (SF-295 CNS) was over 100 µM. The TGI (SF-295 CNS) was over 100 µM, the GI50 (SK-MEL-28 melanoma) was over 100 µM and the TGI (SK-MEL-28 melanoma) was over 100 µM. It also gave a GI50 (T-47D breast) of over 100 µM and a TGI (T-47D breast) of over 100 µM.
With `O=C1Cc2cc(CCn3cncn3)c(Cl)cc2N1` the GI50 (A549 NSCLC) was 16.5 µM, the TGI (A549 NSCLC) was over 100 µM and the GI50 (COLO 205 colon) was 23.3 µM. It also gave a TGI (COLO 205 colon) of over 100 µM, a GI50 (MDA-MB-435) of 3.22 µM and a TGI (MDA-MB-435) of over 100 µM. It also gave a GI50 (NCI-H226 lung) of over 100 µM, a TGI (NCI-H226 lung) of over 100 µM and a GI50 (OVCAR-5 ovarian) of over 100 µM. The TGI (OVCAR-5 ovarian) was over 100 µM, the GI50 (RPMI-8226 leukemia) was over 100 µM and the TGI (RPMI-8226 leukemia) was over 100 µM. It also gave a GI50 (RXF 393 renal) of 7.48 µM, a TGI (RXF 393 renal) of over 100 µM and a GI50 (SF-295 CNS) of 37.1 µM. For the same compound, the TGI (SF-295 CNS) was over 100 µM, the GI50 (SK-MEL-28 melanoma) was 21 µM and the TGI (SK-MEL-28 melanoma) was over 100 µM. For the same compound, the GI50 (T-47D breast) was over 100 µM and the TGI (T-47D breast) was over 100 µM.
`CCCCCCCCCCNCCSS(=O)(=O)O` gave a GI50 (A549 NSCLC) of 2.1 µM, a TGI (A549 NSCLC) of 5.27 µM and a GI50 (COLO 205 colon) of 13 µM. It also gave a TGI (COLO 205 colon) of 27.2 µM, a GI50 (MDA-MB-435) of 1.14 µM and a TGI (MDA-MB-435) of 2.91 µM. For the same compound, the GI50 (NCI-H226 lung) was 2.51 µM, the TGI (NCI-H226 lung) was 5.16 µM and the GI50 (OVCAR-5 ovarian) was 2.27 µM. The TGI (OVCAR-5 ovarian) was 4.24 µM, the GI50 (RPMI-8226 leukemia) was 2.2 µM and the TGI (RPMI-8226 leukemia) was 5.7 µM. The GI50 (RXF 393 renal) was 2.21 µM, the TGI (RXF 393 renal) was 3.91 µM and the GI50 (SF-295 CNS) was 1.83 µM. For the same compound, the TGI (SF-295 CNS) was 3.65 µM, the GI50 (SK-MEL-28 melanoma) was 1.65 µM and the TGI (SK-MEL-28 melanoma) was 4.84 µM. The GI50 (T-47D breast) was 10.9 µM and the TGI (T-47D breast) was 29.5 µM.
In the case of `OC1CCCC2CCC[N-]C12.OC1CCCC2CCC[N-]C12.[O]=[V][OH]` (centres undefined), the GI50 (A549 NSCLC) is reported as 5.23 µM, the TGI (A549 NSCLC) is reported as over 100 µM and the GI50 (COLO 205 colon) is reported as 21.1 µM. For the same compound, the TGI (COLO 205 colon) was 81.8 µM, the GI50 (MDA-MB-435) was 7.44 µM and the TGI (MDA-MB-435) was over 100 µM. The GI50 (NCI-H226 lung) was 42 µM, the TGI (NCI-H226 lung) was over 100 µM and the GI50 (OVCAR-5 ovarian) was 9.99 µM. For the same compound, the TGI (OVCAR-5 ovarian) was over 100 µM, the GI50 (RPMI-8226 leukemia) was 2.54 µM and the TGI (RPMI-8226 leukemia) was 25.8 µM. The GI50 (RXF 393 renal) was 15.6 µM, the TGI (RXF 393 renal) was 35.4 µM and the GI50 (SF-295 CNS) was 9.84 µM. For the same compound, the TGI (SF-295 CNS) was 76.9 µM, the GI50 (SK-MEL-28 melanoma) was 21.2 µM and the TGI (SK-MEL-28 melanoma) was over 100 µM. The GI50 (T-47D breast) was 0.825 µM and the TGI (T-47D breast) was 26.6 µM.
